Among the test systems are DU-145 prostate; HS 578T breast; M14 melanoma; OVCAR-3 ovarian; PC-3 prostate; RPMI-8226 leukemia; SF-268 CNS; SK-MEL-2 melanoma; SK-MEL-5 melanoma; U251 CNS.
Holding throughout (assay): growth of human tumour cells (NCI), 48 h

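Growth conditions: 96-well plates. Treatment: test compound, 48 hours, 5 concentrations. Analysis: linear interpolation between bracketing concentrations; unreached endpoints set to highest concentration. GI50: concentration for 50% inhibition of growth. At the TGI there is no net growth.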

For `C=C(C)C(=O)O[C@H]1CC(=C)[C@@H]2C[C@H](O)[C@](O)(CCl)[C@@H]2[C@H]2OC(=O)C(=C)[C@@H]21`, the GI50 in the assay with DU-145 prostate is 2.16 µM; in the assay on HS 578T breast, 11.6 µM; in the assay with M14 melanoma it was 2.78 µM; with OVCAR-3 ovarian it was 1.81 µM; in the assay with PC-3 prostate it was 3.03 µM; in the assay with RPMI-8226 leukemia, 1.43 µM. The GI50 with SF-268 CNS was 3.76 µM; in the assay on SK-MEL-2 melanoma, 6.59 µM; in the assay with SK-MEL-5 melanoma, 8.66 µM; in the assay with U251 CNS, 2.47 µM. Besides, the TGI in the assay on DU-145 prostate turned out to be 6.33 µM; with HS 578T breast it was 46.1 µM; in the assay on M14 melanoma, 6.88 µM; in the assay on OVCAR-3 ovarian it was 4.38 µM; with PC-3 prostate, 10.4 µM; in the assay with RPMI-8226 leukemia, 4.78 µM. Further, the TGI was 17.4 µM with SF-268 CNS, 22 µM in the assay with SK-MEL-2 melanoma, 23.4 µM in the assay on SK-MEL-5 melanoma and 6.14 µM in the assay with U251 CNS.
Regarding `COc1ccc(-c2nc(-c3nc4ccc(OC)cc4[nH]3)c3ccccn23)cc1`, the GI50 with DU-145 prostate was 4.11 µM; in the assay on HS 578T breast, 2.57 µM; in the assay on M14 melanoma it was 3.74 µM; with OVCAR-3 ovarian it was 4.97 µM; with PC-3 prostate, 3.01 µM; in the assay on RPMI-8226 leukemia, 1.72 µM. Also, the GI50 in the assay with SF-268 CNS is 4.53 µM; with SK-MEL-2 melanoma it was 4.07 µM; in the assay with SK-MEL-5 melanoma, 1.6 µM; in the assay on U251 CNS it was 4.42 µM. In addition, the TGI in the assay on DU-145 prostate is greater than 100 µM; in the assay with HS 578T breast it was 7.15 µM; in the assay on M14 melanoma it was 16 µM; in the assay with OVCAR-3 ovarian, 62.1 µM; in the assay with PC-3 prostate, 32.2 µM; in the assay on RPMI-8226 leukemia it was 5.57 µM. In addition, the TGI in the assay with SF-268 CNS is 64.3 µM; in the assay on SK-MEL-2 melanoma it was 16.5 µM; with SK-MEL-5 melanoma, 4.41 µM; in the assay with U251 CNS, greater than 100 µM.
As for `CC(=O)OCC1OC(n2cnc(C(N)=S)c2N)C(OC(C)=O)C1OC(C)=O` (centres undefined), the TGI in the assay on DU-145 prostate, in the assay on HS 578T breast, in the assay on M14 melanoma, with OVCAR-3 ovarian, in the assay on PC-3 prostate and with RPMI-8226 leukemia was greater than 100 µM each time. The TGI in the assay on SF-268 CNS, in the assay with SK-MEL-2 melanoma, in the assay on SK-MEL-5 melanoma and in the assay with U251 CNS was greater than 100 µM throughout.
In the case of `CCC1C2Cc3ccc(O)cc3C1(CC)CCN2C` (centres undefined), the TGI in the assay with DU-145 prostate, in the assay with HS 578T breast, with M14 melanoma, in the assay with OVCAR-3 ovarian, in the assay on PC-3 prostate and with RPMI-8226 leukemia was greater than 100 µM each time. The TGI in the assay on SF-268 CNS, with SK-MEL-2 melanoma, in the assay with SK-MEL-5 melanoma and with U251 CNS was greater than 100 µM throughout.
Regarding `COc1ccc(C(=O)c2cc(OC)c(OC)c(OC)c2)cc1OC(=O)CCl`, the GI50 in the assay on DU-145 prostate was 0.0322 µM; in the assay with HS 578T breast, 0.0281 µM; in the assay with M14 melanoma it was less than 0.0142 µM; in the assay on OVCAR-3 ovarian, 0.0287 µM; in the assay on PC-3 prostate, less than 0.0192 µM; in the assay with RPMI-8226 leukemia it was less than 0.021 µM. The GI50 is 0.106 µM with SF-268 CNS, 0.436 µM with SK-MEL-2 melanoma, 0.0338 µM in the assay with SK-MEL-5 melanoma and 0.0422 µM in the assay with U251 CNS. The TGI in the assay on HS 578T breast was greater than 100 µM; with PC-3 prostate, greater than 100 µM; in the assay with RPMI-8226 leukemia, 12.9 µM; with SF-268 CNS it was greater than 100 µM; in the assay with SK-MEL-2 melanoma, greater than 100 µM; in the assay on SK-MEL-5 melanoma, 0.434 µM. Further, the TGI in the assay on U251 CNS was greater than 100 µM.
For `COc1cc(C(=O)O[C@H](C(=O)NCCCCCNC(=O)[C@@H](OC(=O)c2cc(OC)cc3c(C)cccc23)[C@]2(C)CO2)[C@]2(C)CO2)c2cccc(C)c2c1`, the GI50 with DU-145 prostate is 0.122 µM; in the assay with HS 578T breast, 0.943 µM; with OVCAR-3 ovarian it was 1.61 µM; in the assay on PC-3 prostate it was 0.997 µM; in the assay on RPMI-8226 leukemia, 1.82 µM; in the assay on SF-268 CNS it was less than 0.0304 µM. Also, the results for the GI50 in the assay on SK-MEL-2 melanoma, in the assay with SK-MEL-5 melanoma and in the assay with U251 CNS were 0.2 µM, 0.166 µM and less than 0.01 µM, respectively. Further, the TGI is 6.51 µM with HS 578T breast; 0.305 µM in the assay with M14 melanoma; 10.6 µM in the assay on OVCAR-3 ovarian; greater than 41.1 µM in the assay on PC-3 prostate; 10.2 µM in the assay with RPMI-8226 leukemia; 0.92 µM in the assay on SF-268 CNS. For the same compound, the values for the TGI in the assay on SK-MEL-5 melanoma and in the assay with U251 CNS were 0.501 µM and 0.3 µM, respectively.
On to `CC(C)[C@H](N)C(=O)N1CCC[C@H]1B(O)O`, for which the GI50 in the assay on DU-145 prostate, with HS 578T breast, with M14 melanoma, in the assay on OVCAR-3 ovarian, with PC-3 prostate and in the assay on RPMI-8226 leukemia was greater than 100 µM in each case. The GI50 in the assay on SF-268 CNS, in the assay on SK-MEL-2 melanoma, in the assay on SK-MEL-5 melanoma and with U251 CNS was greater than 100 µM each time. Besides, the TGI in the assay with DU-145 prostate, with HS 578T breast, in the assay on M14 melanoma, in the assay with OVCAR-3 ovarian, in the assay with PC-3 prostate and with RPMI-8226 leukemia was greater than 100 µM throughout. For the same compound, the TGI in the assay on SF-268 CNS, in the assay on SK-MEL-2 melanoma, with SK-MEL-5 melanoma and with U251 CNS was greater than 100 µM each time.

Source of the values: PubChem BioAssay (NCI).
